Reference: US20230192617A1, “AZABICYCLIC(THIO)AMIDES AS FUNGICIDAL COMPOUNDS” (Bayer CropScience Aktiengesellschaft, priority 2020, published 2023)

Experiments:
Septoria tritici = test: B-9. Septoria tritici in vitro cell test; assay type: cell-based; settings: Zymoseptoria tritici, 168 h; 20 ppm of active ingredient; 7 days incubation; liquid culture, absorbance; read-out: efficacy (inhibition of fungal growth)
Outline: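 Compounds from DMSO stocks (final DMSO ≤1%) were added to liquid medium containing S. tritici spores to test inhibition of germination and mycelial growth. After 7 days, mycelium growth was read spectrometrically and inhibition derived from absorbance versus fungicide-free control wells.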

Pyrenophora teres [1] = test: In vivo preventive test on Pyrenophora teres (net blotch on barley); settings: 240 h, 500 ppm of active ingredient, preventive spray on barley, evaluated 10 days after inoculation, read-out: efficacy
Outline: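 Young barley plants sprayed preventively with compound formulated in DMSO/acetone/Tween 80 and diluted in water; controls got solvent only. Inoculated 24 hours later with P. teres spore suspension, then held 48 hours at 20° C, 100% RH and 8 days at 20° C, 70-80% RH.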

Sphaerotheca fuliginea = test: In vivo preventive test on Sphaerotheca fuliginea (powdery mildew on cucurbits); settings: Podosphaera fuliginea, 192 h; 500 ppm of active ingredient; preventive spray on gherkin; evaluated 8 days after inoculation; read-out: efficacy
Outline: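 Young gherkin plants were sprayed with compound in DMSO/acetone/Tween 80 diluted in water. They were inoculated 24 h later with a spore suspension of Sphaerotheca fuliginea. Plants were then kept for 8 days at 20 °C and 70–80% relative humidity.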

Botrytis cinerea = test: In vivo preventive test on Botrytis cinerea (grey mould); settings: 500 ppm of active ingredient, preventive spray on gherkin or cabbage, evaluated 4 to 5 days after inoculation, read-out: efficacy
Outline: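 Young gherkin or cabbage plants were sprayed with compound in DMSO/acetone/Tween 80 diluted in water, then inoculated 24 hours later with a B. cinerea spore suspension. Incubation lasted 4 to 5 days: gherkin at 17° C., 90% relative humidity; cabbage at 20° C., 100% relative humidity.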

[2] = Measurement of Log P values by HPLC on reversed phase columns (EEC directive 79/831 Annex V.A8); assay type: physicochemical; settings: reversed phase HPLC column, method [a]: LC-UV, acidic range, 0.1% formic acid in water and acetonitrile as eluent
Outline: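 Reversed-phase HPLC with UV detection per EEC 79/831 Annex V.A8, linear 10–95% acetonitrile gradient. Aqueous eluent: 0.1% formic acid (acidic), 0.001 M ammonium acetate (neutral), or 0.1% phosphoric acid (acidic); multiple values in one method joined by "+".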

[3] = test system: Colletotrichum lindemuthianum; test: B-8. Colletotrichum lindemuthianum in vitro cell test; assay type: cell-based; settings: 144 h, 20 ppm of active ingredient, 6 days incubation, liquid culture, absorbance, read-out: efficacy (inhibition of fungal growth)
Outline: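 Spore suspension of C. lindemuthianum in liquid medium exposed to DMSO-solubilized compounds (final DMSO ≤1%) for 6 days. Mycelial growth read by absorbance, with inhibition calculated relative to compound-free control wells.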

Pyrenophora teres [4] = test: B-10. Pyrenophora teres in vitro cell test; assay type: cell-based; settings: 144 h, 20 ppm of active ingredient, 6 days incubation, liquid culture, absorbance, read-out: efficacy (inhibition of fungal growth)
Outline: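 Liquid-culture assay on a P. teres spore suspension with compounds added to the medium from DMSO solutions, final DMSO ≤1%. Mycelium growth read spectrometrically after 6 days. Inhibition calculated from absorbance against untreated control wells.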

Alternaria alternata = Alternaria alternata in vitro cell test; assay type: cell-based; settings: 120 h, 20 ppm of active ingredient, liquid culture, 5 days incubation, spectrometric measurement of mycelium growth, read-out: efficacy (inhibition of fungal growth)
Outline: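 Liquid culture assay in which A. alternata spores in medium received DMSO-solubilized compound (final DMSO ≤1%). After 5 days, mycelium growth was measured spectrometrically. Inhibition was calculated against fungicide-free control wells.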

Row | SMILES | inhibition at 20 ppm (Septoria tritici) | pest or weed control at 500 ppm (Pyrenophora teres [1]) | pest or weed control at 500 ppm (Sphaerotheca fuliginea) | pest or weed control at 500 ppm (Botrytis cinerea) | chromatographic logP [2] | inhibition at 20 ppm [3] | inhibition at 20 ppm (Pyrenophora teres [4]) | inhibition at 20 ppm (Alternaria alternata)
1 | Cc1cc(Br)ccc1C(F)(F)CNC(=O)c1c(Oc2cccc(C(F)F)c2)nnc2c1CCCC2 [I-150] | 90 to 100% | 90 to 100% | 90 to 100% | 90 to 100% | 3.84 | 90 to 100% | 90 to 100% | 90 to 100%
2 | Cc1cc(Br)ccc1C(F)(F)CNC(=O)c1c(Oc2cccc(Cl)c2)nnc2c1CCCC2 [I-151] | 90 to 100% | 80 to 89% | 90 to 100% | 90 to 100% | 4.17 | 90 to 100% | 90 to 100% | 90 to 100%
3 | Cc1cc(Br)ccc1C(F)(F)CNC(=O)c1c(Oc2cccc(Cl)c2F)nnc2c1CCCC2 [I-152] | 90 to 100% | 80 to 89% | 90 to 100% | 90 to 100% | 4.44 | 90 to 100% | 90 to 100% | 90 to 100%
4 | O=C(NCC(F)c1ccc(Cl)cc1Cl)c1c(Oc2cccc(C(F)(F)F)c2)nnc2c1CCC2 (stereo not shown) [I-186] | 90 to 100% | 90 to 100% | 90 to 100% | 90 to 100% | 4 | 90 to 100% | 90 to 100% | 90 to 100%
5 | O=C(NCC(F)c1ccc(Cl)cc1Cl)c1c(Oc2cccc(Cl)c2F)nnc2c1CCC2 (stereo not shown) [I-188] | 90 to 100% | 90 to 100% | 90 to 100% | 90 to 100% | 3.89 | 90 to 100% | 90 to 100% | 90 to 100%
6 | O=C(NCC(F)(F)c1ccc(Br)cc1Cl)c1c(Oc2cccc(C(F)(F)F)c2)nnc2c1CCC2 [I-212] | 90 to 100% | 90 to 100% | 90 to 100% | 90 to 100% | 4.17 | 90 to 100% | 90 to 100% | 90 to 100%
7 | O=C(NCC(F)(F)c1ccc(Br)cc1Cl)c1c(Oc2cccc(Cl)c2F)nnc2c1CCC2 [I-213] | 90 to 100% | 80 to 89% | 90 to 100% | 90 to 100% | 4.05 | 90 to 100% | 90 to 100% | 90 to 100%
8 | Cc1ccc(C(F)(F)CNC(=O)c2c(Oc3cccc(Br)c3)nnc3ccccc23)c(C)c1 [I-216] | 80 to 89% | 70 to 79% | 90 to 100% | 90 to 100% | 4.38 | 90 to 100% | 90 to 100% | 90 to 100%
9 | Cc1ccc(C(F)(F)CNC(=O)c2c(Oc3cccc(C(F)F)c3)cnc3ccccc23)c(C)c1 [I-220] | 90 to 100% | 70 to 79% | 90 to 100% | 90 to 100% | 4.08 | 90 to 100% | 90 to 100% | 90 to 100%
10 | Cc1cccc(Oc2cnc3ccccc3c2C(=O)NCC(F)(F)c2ccc(C)cc2C)c1 [I-222] | 80 to 89% | 80 to 89% | 90 to 100% | 90 to 100% | 4.3 | 90 to 100% | 90 to 100% | 90 to 100%
11 | Cc1ccc(C(F)(F)CNC(=O)c2c(Oc3cccc(Br)c3F)nnc3ccccc23)c(C)c1 [I-227] | 70 to 79% | 70 to 79% | 90 to 100% | 90 to 100% | 4.4 | 90 to 100% | 90 to 100% | 90 to 100%
12 | O=C(NCC(F)(F)c1ccc(Cl)cc1Cl)c1c(Oc2cccc(C(F)(F)F)c2)nnc2c1COCC2 [I-228] | 90 to 100% | 70 to 79% | 90 to 100% | 90 to 100% | 3.85 | 90 to 100% | 90 to 100% | 90 to 100%
13 | O=C(NCC(F)(F)c1ccc(Br)cc1Cl)c1c(Oc2cccc(C(F)(F)F)c2)nnc2c1COCC2 [I-229] | 90 to 100% | 70 to 79% | 90 to 100% | 90 to 100% | 3.94 | 90 to 100% | 90 to 100% | 90 to 100%
14 | Cc1ccc(C(F)(F)CNC(=O)c2c(Oc3cccc(C(F)(F)F)c3)nnc3c2CCCC3)c(Cl)c1 [I-239] | 90 to 100% | 90 to 100% | 90 to 100% | 90 to 100% | 4.05 | 90 to 100% | 90 to 100% | 90 to 100%
15 | Cc1ccc(C(F)(F)CNC(=O)c2c(Oc3cccc(C(F)F)c3)nnc3c2CCCC3)c(Cl)c1 [I-243] | 90 to 100% | 90 to 100% | 90 to 100% | 90 to 100% | 3.63 | 90 to 100% | 90 to 100% | 90 to 100%
16 | Cc1ccc(C(F)(F)CNC(=O)c2c(Oc3cccc(C(F)(F)F)c3)nnc3cc(C)ccc23)c(Cl)c1 [I-245] | 80 to 89% | 90 to 100% | 90 to 100% | 90 to 100% | 4.7 | 90 to 100% | 90 to 100% | 90 to 100%
17 | Cc1ccc2c(C(=O)NCC(F)(F)c3ccc(C)c(C)c3)c(Oc3cccc(C(F)(F)F)c3)nnc2c1 [I-246] | 90 to 100% | 80 to 89% | 90 to 100% | 90 to 100% | 4.66 | 90 to 100% | 90 to 100% | 90 to 100%
